Laboratory results taken from publication PMC9081605, “A High-Throughput Toxicity Screen of 42 Per- and Polyfluoroalkyl Substances (PFAS) and Functional Assessment of Migration and Gene Expression in Human Placental Trophoblast Cells” (Frontiers in Toxicology, 2022).
“Also recorded” adds a separate entry of the source.

Test system: JEG-3 cells
Experiment: Gene expression, custom NanoString code set of 46 genes
Type: cell-based, human
Procedure: JEG-3 cells were seeded at a density of 80,000 cells per well in six well plates and allowed to adhere overnight (24 h). The following day, media was removed and replaced with exposure media, then returned to the incubator for 24 h. The test compounds included non-cytotoxic concentrations of PFOA (0, 1, and 100 µM) and GenX (0, 3, 300 µM). These test compounds were selected a priori due to their high public health relevance. Each 6 well plate contained the three concentrations for either PFOA or GenX, with each condition in technical duplicate. Plates containing these PFOA or GenX exposure conditions were replicated three times (N = 3). After 24 h, exposure media was aspirated and cells were washed in ice cold 1xPBS, which was then aspirated. Each well received 500 µl of TRIzol reagent (Thermo Fisher Scientific, MA, United States) and cells were harvested in the TRIzol using a cell scraper. Technical duplicate wells within a plate were combined to generate a single sample of ∼1,000 µl. RNA was isolated from the resulting cellular homogenate using RNeasy Mini Kits (Qiagen, Hilden, Germany). Isolated RNA quality was validated and concentration determined using a NanoDrop 2000 (Thermo Fisher Scientific, MA, United States). 100 ng of mRNA from each sample was then analyzed using a custom gene expression code set (NanoString, Seattle, WA, United States). The custom code set included 46 genes selected for their downstream involvement in placental development (e.g., WNT4), endocrine signaling (e.g., CYP19A1), fetal growth/nutrient sensing (e.g., IGF2), inflammation (e.g., IL6), oxidative stress (e.g., SOD1, GPX1), and xenobiotic transport/metabolism (e.g., ABCG2, MRP3).
Gene expression data were quantified using the nCounter Digital Analyzer (NanoString, Seattle, WA, United States) and raw and adjusted counts were generated with nSolver (v4.0) software (NanoString, Seattle, WA, United States). Data were adjusted utilizing the manufacturer’s positive and negative experimental control probes, as well as housekeeping genes (ACTA2, ACTB, B2M, LDHA, RNA18S5, and ROLYR2L). All samples passed nSolver’s initial QA/QC controls and replicates were very well correlated with R ^2 values greater than 0.99. Adjusted data were then imported into Partek v7.0 (St. Louis, MO, United States), log2 transformed and quantile normalized for further QA/QC and statistical analyses. Genes with mRNA counts below the detection threshold of 20 were removed due to suboptimal probe hybridization (N = 2 genes for GenX; GH2 and IGFBP5). Fold change values were analyzed by ANOVA with post hoc false discovery rate adjustment (FDR) of p < 0.1. Normalized gene expression values were visualized using pheatmap with Euclidean clustering of genes and concentration groups ([Kolde and Kolde, 2015]).

## O=C(O)C(F)(F)C(F)(F)C(F)(F)C(F)(F)C(F)(F)C(F)(F)C(F)(F)F [Perfluorooctanoic acid]
1 µM, 24 h
  11BHSD2 gene expression, fold change over untreated control: -1.06
  17BHSD1 gene expression, fold change over untreated control: -1.02
  ABCG2 gene expression, fold change over untreated control: -1.07
  AHR gene expression, fold change over untreated control: -1.09
  AHRR gene expression, fold change over untreated control: significantly altered
  CAT gene expression, fold change over untreated control: 1.02
  CGB5 gene expression, fold change over untreated control: 1.00
  COX2 gene expression, fold change over untreated control: -1.11
  CTNNB1 gene expression, fold change over untreated control: 1.00
  CYP1A1 gene expression, fold change over untreated control: 1.05
  CYP3A5 gene expression, fold change over untreated control: 1.28
  CYP3A7 gene expression, fold change over untreated control: 1.15
  CYP19A1 gene expression, fold change over untreated control: -1.05
  EGFR gene expression, fold change over untreated control: 1.07
  ENG gene expression, fold change over untreated control: 1.02
  ESRRA gene expression, fold change over untreated control: 1.00
  ESRRG gene expression, fold change over untreated control: -1.04
  GH2 gene expression, fold change over untreated control: 1.02
  GHR gene expression, fold change over untreated control: 1.00
  GPER1 gene expression, fold change over untreated control: 1.02
  GPX1 gene expression, fold change over untreated control: 1.00
  HIF1A gene expression, fold change over untreated control: 1.00
  IGF2 gene expression, fold change over untreated control: 1.00
  IGFBP5 gene expression, fold change over untreated control: -1.13
  IGFR1 gene expression, fold change over untreated control: 1.03
  IGFR2 gene expression, fold change over untreated control: 1.05
  IL6 gene expression, fold change over untreated control: -1.05
  MRP1 gene expression, fold change over untreated control: -1.03
  MRP2 gene expression, fold change over untreated control: 1.09
  MRP3 gene expression, fold change over untreated control: -1.08
  NFKB1 gene expression, fold change over untreated control: 1.00
  NFKB2 gene expression, fold change over untreated control: 1.00
  NR3C1 gene expression, fold change over untreated control: 1.09
  PGF gene expression, fold change over untreated control: 1.00
  PMM1 gene expression, fold change over untreated control: -1.03
  ROLYR2L gene expression, fold change over untreated control: 1.00
  SLC2A1 gene expression, fold change over untreated control: -1.02
  SOD1 gene expression, fold change over untreated control: 1.00
  TGFB1 gene expression, fold change over untreated control: 1.00
  VEGFA gene expression, fold change over untreated control: 1.00
  VEGFB gene expression, fold change over untreated control: -1.00
  WNT4 gene expression, fold change over untreated control: 1.25
  WNT6 gene expression, fold change over untreated control: -1.04
  WNT7B gene expression, fold change over untreated control: 1.06
  mTOR gene expression, fold change over untreated control: 1.00
100 µM, 24 h
  11BHSD2 gene expression, fold change over untreated control: -1.03
  AHR gene expression, fold change over untreated control: 1.08
  AHRR gene expression, fold change over untreated control: 1.00
  CAT gene expression, fold change over untreated control: -1.06
  CGB5 gene expression, fold change over untreated control: -1.15
  COX2 gene expression, fold change over untreated control: 1.03
  CTNNB1 gene expression, fold change over untreated control: 1.00
  CYP1A1 gene expression, fold change over untreated control: 1.18
  CYP2E1 gene expression, fold change over untreated control: 1.00
  CYP3A5 gene expression, fold change over untreated control: -1.18
  CYP3A7 gene expression, fold change over untreated control: -1.22
  CYP19A1 gene expression, fold change over untreated control: 1.00
  EGFR gene expression, fold change over untreated control: -1.07
  ENG gene expression, fold change over untreated control: -1.19
  ESRRA gene expression, fold change over untreated control: 1.00
  ESRRG gene expression, fold change over untreated control: -1.16
  GH2 gene expression, fold change over untreated control: 1.12
  GHR gene expression, fold change over untreated control: 1.15
  GPER1 gene expression, fold change over untreated control: -1.05
  GPX1 gene expression, fold change over untreated control: non-significant trend of decreased expression
  HIF1A gene expression, fold change over untreated control: 1.00
  IGF2 gene expression, fold change over untreated control: -1.00
  IGFBP5 gene expression, fold change over untreated control: -1.02
  IGFR1 gene expression, fold change over untreated control: 1.08
  IGFR2 gene expression, fold change over untreated control: significantly altered
  IL6 gene expression, fold change over untreated control: 1.10
  MRP1 gene expression, fold change over untreated control: -1.06
  MRP2 gene expression, fold change over untreated control: -1.03
  MRP3 gene expression, fold change over untreated control: -1.12
  NFKB1 gene expression, fold change over untreated control: 1.03
  NFKB2 gene expression, fold change over untreated control: 1.00
  NR3C1 gene expression, fold change over untreated control: 1.00
  PGF gene expression, fold change over untreated control: -1.00
  PMM1 gene expression, fold change over untreated control: 1.07
  ROLYR2L gene expression, fold change over untreated control: 1.00
  SLC2A1 gene expression, fold change over untreated control: -1.11
  SOD1 gene expression, fold change over untreated control: 1.00
  TGFB1 gene expression, fold change over untreated control: -1.18
  VEGFA gene expression, fold change over untreated control: 1.08
  VEGFB gene expression, fold change over untreated control: -1.04
  WNT4 gene expression, fold change over untreated control: significantly altered
  WNT6 gene expression, fold change over untreated control: -1.02
  WNT7B gene expression, fold change over untreated control: 1.06
  mTOR gene expression, fold change over untreated control: 1.00
100 µM, 24 h, listed as PFOA
  17BHSD1 gene expression, fold change over untreated control: significantly altered; also recorded: significant increase
  ABCG2 gene expression, fold change over untreated control: upregulation; also recorded: significantly altered
After 24 h of exposure
  lowest concentration inducing significant dysregulated expression of placental genes: 1 µM
